The source of these data is US20250134813A1, “COMPOUNDS, LIPSOMES, AND DRUG CARRIERS FOR DRUG DELIVERY” (priority 2023, published 2025).

≈ marks a conversion by molar mass, not a printed value.

The subject of one experiment is CHL cells. Briefly: Evaluation of cell toxicity (CCK8 cell viability). Format: cell-based. The procedure:
CHL cells are seeded in a 96-well culture plate at a density of 4000 cells per well and incubated overnight at 37° C. in a 5% CO2 incubator. The culture medium is then replaced with 100 μL of medium containing different concentrations of ALC-0315, SM-102, and compounds prepared according to embodiments 1 and 2 of the present invention (specific concentrations are shown in FIG. 1), and cells are further incubated for 48 hours. Subsequently, 10 μL of CCK8 solution is added to each well and incubated for an additional 4 hours in the cell culture incubator. After the incubation, the absorbance at 450 nm is measured using a microplate reader, and cell viability is calculated. The IC50 values are calculated using GraphPad Prism software (version 8.01).

For experiment [1], the system named is RBD of the wild-type Delta strain S protein. Briefly: Immunostimulatory efficacy of LNPs@Delta S-2P mRNA (serum antibody titers by ELISA). Format: in vivo, Balb/c mice. Conditions: for GMT: i.m. For orientation: ELISA stands for enzyme-linked immunosorbent assay.
The subject of experiment [2] is Fluc mRNA expression. Briefly: In vivo expression of LNPs@Fluc mRNA via intramuscular injection (bioluminescence, IVIS). On the set-up: species or system BALB/c mouse. Conditions: 20 μg FLuc mRNA per mouse, 8 hours after administration, vs MC3, ALC-0315, SM-102. On the procedure:
(§1) Furthermore, the ability of LNPs@mRNA prepared using compounds of the present invention to deliver mRNA in vivo was investigated. The inventors chose firefly luciferase as the reporter gene to label mRNA, referred to as Fluc mRNA. Following the method outlined in Example 3, LNPs@Fluc mRNA were prepared using different ionizable lipids (Compound 8, MC3, ALC-0315, or SM-102), referred to as LNP@Fluc mRNA formulation, MC3@Fluc mRNA, ALC-0315@Fluc mRNA, and SM-102@Fluc mRNA, respectively. These formulations were administered via intravenous injection (Step 2.1 of this example) and intramuscular injection (Step 2.2 of this example) to investigate the ability of LNPs@mRNA formulations prepared using compounds of the present invention to express mRNA in vivo and the distribution of expression.
The formulations LNPs@Fluc mRNA (Compound 8), the positive control formulation MC3@Fluc mRNA, ALC-0315@Fluc mRNA, and SM-102@Fluc mRNA, abbreviated as follows, were prepared as described above.
Each formulation's mRNA concentration was adjusted to 0.1 mg/mL using PBS solution, and the osmolarity of each formulation was adjusted to isotonic. […] The bioluminescence intensity of the entire body of the live mice was measured using an IVIS instrument with an exposure time of 60 s. Total flux of each organ was calculated after imaging. […]

Experiment [3] has as its system Fluc mRNA expression. Description: In vivo expression of LNPs@Fluc mRNA via intravenous injection (organ bioluminescence, IVIS). On the set-up: species or system NIH mouse. Conditions: intravenous (tail vein), 10 μg FLuc mRNA per mouse, 6 hours after administration; vs MC3, ALC-0315, SM-102. On the procedure:
as §1, with “expression. […]” for “expression.”
Each formulation's mRNA concentration was adjusted to 0.05 mg/mL using PBS solution, and the osmolarity of each formulation was adjusted to isotonic. […] The heart, liver, spleen, lungs, and kidneys were rapidly dissected, and the bioluminescence intensity of each excised organ was measured using an IVIS instrument with an exposure time of 60 s. Total flux of each organ was calculated after imaging. […]

[4] abbreviates: CHL cells, 48 hours incubation, CCK8, cell viability.
[5] abbreviates: Table 3: 1 μg each time, two administrations 14 days apart, serum 28 days after the initial immunization.
The mark [6] stands for this setting: Day 14, dose 0.1 μg, LNPs@Delta S-2P mRNA prepared with the lipid.
Where [7] appears, read: Day 14, dose 1 μg, LNPs@Delta S-2P mRNA prepared with the lipid.
[8] abbreviates: Day 14, dose 5 μg, LNPs@Delta S-2P mRNA prepared with the lipid.
Where [9] appears, read: Day 28, dose 0.1 μg, two administrations 14 days apart.
The mark [10] stands for this setting: Day 28, dose 1 μg, two administrations 14 days apart.
Where [11] appears, read: Day 28, dose 5 μg, two administrations 14 days apart.

Broadly, the IC50 is the midpoint of a concentration-inhibition curve. Higher therefore signals weaker potency. In turn, `CCCCCCCCC(CCCCCC)C(=O)OCCCCCCN(CCCCO)CCCCCCOC(=O)C(CCCCCC)CCCCCCCC` (stereo not drawn) [ALC-0315, reference compound] had an IC50 in the experiment on CHL cells (setting [4]) of 29.9 µg/mL (≈ 39 µM).
For the compound `CCCCCCCCC(CCCCCC)CNC(=O)NCCCCCCN(CCCO)CCCCCCNC(=O)NCC(CCCCCC)CCCCCCCC` (stereo not drawn) [Compound 7], in the experiment with CHL cells (CHL, 48 h), the IC50 is 126 µg/mL (≈ 155 µM). Further, the GMT in experiment [1] (setting [5]) is reported as 341,832.9.
For `CCCCCCCCC(CCCCCC)CNC(=O)NCCCCCCN(CCCCO)CCCCCCNC(=O)NCC(CCCCCC)CCCCCCCC` (stereo not drawn) [Compound 8], 166 µg/mL (≈ 202 µM) corresponded to half-maximal inhibition with CHL cells (CHL, 48 h) (IC50). Further, the “Compound 8 GMT/SM-102 GMT” value in experiment [1] (Day 14, dose 0.1 μg) was determined as 6.3; in experiment [1] (Day 14, dose 1 μg) it was 14.3; in experiment [1] (Day 14, dose 5 μg), 4.5; in experiment [1] (Day 28, dose 0.1 μg), 3.6; in experiment [1] (Day 28, dose 1 μg), 4.0; in experiment [1] (Day 28, dose 5 μg) it was 2.5. Besides, the GMT is 4525.5 in experiment [1] (setting [6]); 32254.0 in experiment [1] (setting [7]); 81274.9 in experiment [1] (setting [8]); 64508.0 in experiment [1] (setting [9]); 325099.7 in experiment [1] (setting [10]); 819200.0 in experiment [1] (setting [11]). Also, the GMT in experiment [1] (setting [5]) was 325,099.7. Moreover, the “mRNA expression capability based on the total bioluminescence emitted” value in the experiment on Fluc mRNA expression [2] and in the experiment with Fluc mRNA expression [3] was “stronger mRNA expression capability compared to the three positive control materials” each time.
For the compound `CCCCCCCCC(CCCCCC)CNC(=O)NCCCCCCN(CCCCCO)CCCCCCNC(=O)NCC(CCCCCC)CCCCCCCC` (stereo not drawn) [Compound 9], the midpoint of inhibition with CHL cells (CHL, 48 h), the IC50, lay at 152 µg/mL (≈ 182 µM). In addition, the GMT in experiment [1] (setting [5]) is recorded as 452,334.1.
For `CCCCCCCCC(CCCCCC)CNC(=O)NCCCCCCN(CCCCCCCO)CCCCCCNC(=O)NCC(CCCCCC)CCCCCCCC` (stereo not drawn) [Compound 10], the IC50 in the experiment on CHL cells (CHL, 48 h) was 153 µg/mL (≈ 177 µM). Moreover, the GMT in experiment [1] (setting [5]) is on record as 299,812.1.
Regarding `CCCCCCCCC(CCCCCC)CNC(=O)NCCCCCN(CCCCO)CCCCCNC(=O)NCC(CCCCCC)CCCCCCCC` (stereo not drawn) [Compound 11], the IC50 in the experiment on CHL cells (CHL, 48 h) came to 137 µg/mL (≈ 173 µM). Further, in experiment [1] (setting [5]), the GMT is recorded as 473,681.3.
On the same counts, the results for `CCCCCCCCC(CCCCCC)CNC(=O)NCCCCCCCCCN(CCCCO)CCCCCCCCCNC(=O)NCC(CCCCCC)CCCCCCCC` (stereo not drawn) [Compound 12] are 195 µg/mL (≈ 215 µM) and 449,359.1.
In the case of `CCCCCCCCC(CCCCCC)CNC(=O)NCCCCCCCCCCCCN(CCCCO)CCCCCCCCCCCCNC(=O)NCC(CCCCCC)CCCCCCCC` (stereo not drawn) [Compound 13], the half-maximal inhibitory concentration (IC50) in the experiment with CHL cells (CHL, 48 h) was found to be 136 µg/mL (≈ 137 µM). In experiment [1] (setting [5]), the GMT is listed as 210,944.0.
For `CCCCCCCCC(CCCCCC)CNC(=O)NCCCCCCCCCCCCN(CCCCO)CCCCCCNC(=O)NCC(CCCCCC)CCCCCCCC` (stereo not drawn) [Compound 15], in that order: 147 µg/mL (≈ 162 µM) and 400,363.5.
For `CCCCCCC(CCCCCC)CNC(=O)NCCCCCCN(CCCCO)CCCCCCNC(=O)NCC(CCCCCC)CCCCCC` [Compound 16], in that order: 134 µg/mL (≈ 174 µM) and 244,238.6.
For `CCCCCCCCC(CCCCCCCC)CNC(=O)NCCCCCCN(CCCCO)CCCCCCNC(=O)NCC(CCCCCCCC)CCCCCCCC` [Compound 17], in that order: 174 µg/mL (≈ 198 µM) and 299,707.3.
Regarding `CCCCCCCCCCCCNC(=O)NCCCCCCN(CCCCO)CCCCCCNC(=O)NCC(CCCCCC)CCCCCCCC` (stereo not drawn) [Compound 21], inhibition with CHL cells (CHL, 48 h) was half-maximal at 119 µg/mL (≈ 156 µM) (IC50). In addition, in experiment [1] (setting [5]), the GMT is given as 208,203.5.
Compound `CCCCCCCCCCCOC(=O)CCCCCN(CCO)CCCCCCCC(=O)OC(CCCCCCCC)CCCCCCCC` [SM-102, reference compound] returned an IC50 with CHL cells (setting [4]) of 55.9 µg/mL (≈ 78.7 µM). Moreover, the GMT in experiment [1] (setting [6]) is reported as 712.7; in experiment [1] (setting [7]), 2262.7; in experiment [1] (setting [8]) it was 18101.9; in experiment [1] (setting [9]), 18101.9; in experiment [1] (setting [10]) it was 81274.9; in experiment [1] (setting [11]), 325099.7. Besides, in experiment [1] (setting [5]), the GMT is on record as 81,274.9.
